Results as given in US12410171B2, “Tropomyosin receptor kinase (TRK) degradation compounds and methods of use” (Cullgen (Shanghai), Inc., priority 2020, dated 2025).
Like-named read-outs stand apart in the source and are kept apart here.

Test system: KM12 cells
Assay: KM12 cell viability (CellTiter-Glo)
Format: cell-based
Details: Homo sapiens, 72 h, KM12 cell viability, CellTiter-Glo, read-out: IC50
Procedure: KM12 or H358 cells were treated with 1000 nM CPD-053 following an 8-point 3-fold serial dilution for 3 days.
KM12 cells seeded in 96-well plates were treated with heterobifunctional compounds following a 11-point 3-fold serial dilution for 3 days.
KM12, H358, HEL, SU-DHL-1 and other cells were cultured at 37° C. with 5% CO2 in RPMI 1640 Medium supplemented with 10% fetal bovine serum. Cells were authenticated using the short tandem repeat (STR) assays. Mycoplasma test results were negative. Stable cell lines were established by lentivirus transduction, selected and maintained in medium containing 1 μg/mL puromycin (Beyotime Biotechnology).
Cells were seeded at a density of 5000 cells per well in 96-well assay plates and treated with test compounds following a 12-point 2-fold serial dilution or a 8-point 3-fold dilution, or 11-point 3-fold serial dilution. Three days later, cell viability was determined using the CellTiter-Glo assay kit (Promega) according to the manufacturer's instructions. The dose-response curves were determined and IC50 values were calculated using the GraphPad Prism software following a nonlinear regression (least squares fit) method.

[1] = 11-point 3-fold serial dilution, 3 days

Row | Structure (SMILES) | IC50 [1] | IC50 (three days treatment)
1 | Cc1ncsc1-c1ccc(CNC(=O)[C@@H]2C[C@@H](O)CN2C(=O)[C@@H](NC(=O)CCOCCC(=O)N2CCC(Nc3cccc(C(=O)Nc4cnn5ccc(N6CCC[C@@H]6c6cc(F)ccc6F)nc45)n3)CC2)C(C)(C)C)cc1 [CPD-465, N-(5-((R)-2-(2,5-difluorophenyl)pyrrolidin-1-yl)pyrazolo[1,5-a]pyrimidin-3-yl)-6-((1-(3-(3-(((S)-1-((2S,4R)-4-hydroxy-2-((4-(4-methylthiazol-5-yl)benzyl)carbamoyl)pyrrolidin-1-yl)-3,3-dimethyl-1-oxobutan-2-yl)amino)-3-oxopropoxy)propanoyl)piperidin-4-yl)amino)picolinamide] | 2020 nM | 
2 | O=C1CCC(N2C(=O)c3ccc(CCN4CCN(c5ccc(C(=O)Nc6n[nH]c7ccc(Cc8cc(F)cc(F)c8)cc67)c(NC6CCOCC6)c5)CC4)cc3C2=O)C(=O)N1 (stereo not shown) [TR-277, N-(5-(3,5-Difluorobenzyl)-1H-indazol-3-yl)-4-(4-(2-(2-(2,6-dioxopiperidin-3-yl)-1,3-dioxoisoindolin-S-yl)ethyl)piperazin-1-yl)-2-((tetrahydro-2H-pyran-4-yl)amino)benzamide] |  | > 500 nM
3 | Cn1c(=O)n(C2CCC(=O)NC2=O)c2ccc(OCCCN3CCN(c4cccc(-c5cnc6ccc(N7CCC[C@@H]7c7cccc(F)c7)nn56)n4)CC3)cc21 (stereo partly drawn) [TR-257, 3-(5-(3-(4-(6-(6-((R)-2-(3-Fluorophenyl)pyrrolidin-1-yl)imidazo[1,2-b]pyridazin-3-yl)pyridin-2-yl)piperazin-1-yl)propoxy)-3-methyl-2-oxo-2,3-dihydro-1H-benzo[d]imidazol-1-yl)piperidine-2,6-dione] |  | > 500 nM
4 | COc1ccc(COc2ccc(Cn3c(N)nc4cc(-c5cnn(CC(=O)NCCOCCOCCOCCOCCOCCC(=O)N[C@H](C(=O)N6C[C@H](O)C[C@H]6C(=O)NCc6ccc(-c7scnc7C)cc6)C(C)(C)C)c5)cnc43)cc2OC)cc1 [CPD-516, (2S,4R)-1-((S)-1-(4-(2-amino-3-(3-methoxy-4-((4-methoxybenzyl)oxy)benzyl)-3H-imidazo[4,5-b]pyridin-6-yl)-1H-pyrazol-1-yl)-23-(tert-butyl)-2,21-dioxo-6,9,12,15,18-pentaoxa-3,22-diazatetracosan-24-oyl)-4-hydroxy-N-(4-(4-methylthiazol-5-yl)benzyl)pyrrolidine-2-carboxamide] | 473 nM | 
5 | COc1ccc(COc2ccc(Cn3c(N)nc4cc(-c5cnn(CC(=O)NCCOCCOCCOCCNc6cccc7c6C(=O)N(C6CCC(=O)NC6=O)C7=O)c5)cnc43)cc2OC)cc1 (stereo not shown) [CPD-504, 2-(4-(2-amino-3-(3-methoxy-4-((4-methoxybenzyl)oxy)benzyl)-3H-imidazo[4,5-b]pyridin-6-yl)-1H-pyrazol-1-yl)-N-(2-(2-(2-(2-((2-(2,6-dioxopiperidin-3-yl)-1,3-dioxoisoindolin-4-yl)amino)ethoxy)ethoxy)ethoxy)ethyl)acetamide] | 334 nM | 
6 | Cc1ncsc1-c1ccc(CNC(=O)[C@@H]2C[C@@H](O)CN2C(=O)[C@@H](NC(=O)CCCCC(=O)N2CCC(Nc3cccc(C(=O)Nc4cnn5ccc(N6CCC[C@@H]6c6cc(F)ccc6F)nc45)n3)CC2)C(C)(C)C)cc1 [CPD-462, N-(5-((R)-2-(2,5-difluorophenyl)pyrrolidin-1-yl)pyrrazolo[1,5-a]pyrimidin-3-yl)-6-((1-(6-(((S)-1-((2S,4R)-4-hydroxy-2-((4-(4-methylthiazol-5-yl)benzyl)carbamoyl)pyrrolidin-1-yl)-3,3-dimethyl-1-oxobutan-2-yl)amino)-6-oxohexanoyl)piperidin-4-yl)amino)picolinamide] | > 1000 nM | 
7 | Cc1ncsc1-c1ccc(CNC(=O)[C@@H]2C[C@@H](O)CN2C(=O)[C@@H](NC(=O)CCCCCCC(=O)N2CCC(Nc3cccc(C(=O)Nc4cnn5ccc(N6CCC[C@@H]6c6cc(F)ccc6F)nc45)n3)CC2)C(C)(C)C)cc1 [CPD-463, N-(5-((R)-2-(2,5-difluorophenyl)pyrrolidin-1-yl)pyrazolo[1,5-a]pyrimidin-3-yl)-6-((1-(8-(((S)-1-((2S,4R)-4-hydroxy-2-((4-(4-methylthiazol-5-yl)benzyl)carbamoyl)pyrrolidin-1-yl)-3,3-dimethyl1-oxobutan-2-yl)amino)-8-oxooctanoyl)piperidin-4-yl)amino)picolinamide] | 443 nM | 
8 | COc1ccc(COc2ccc(Cn3c(N)nc4cc(-c5cnn(CC(=O)NCCOCCC(=O)N[C@H](C(=O)N6C[C@H](O)C[C@H]6C(=O)NCc6ccc(-c7scnc7C)cc6)C(C)(C)C)c5)cnc43)cc2OC)cc1 [CPD-512, (2S,4R)-1-((S)-2-(3-(2-(2-(4-(2-amino-3-(3-methoxy-4-((4-methoxybenzyl)oxy)benzyl)-3H-imidazo[4,5-b]pyridin-6-yl)-1H-pyrazol-1-yl)acetamido)ethoxy)propanamido)-3,3-dimethylbutanoyl)-4-hydroxy-N-(4-(4-methylthiazol-5-yl)benzyl)pyrrolidine-2-carboxamide] | 307 nM | 
9 | COc1ccc(COc2ccc(Cn3c(N)nc4cc(-c5cnn(CC(=O)NCCOCCNc6cccc7c6C(=O)N(C6CCC(=O)NC6=O)C7=O)c5)cnc43)cc2OC)cc1 (stereo not shown) [CPD-502, 2-(4-(2-amino-3-(3-methoxy-4-((4-methoxybenzyl)oxy)benzyl)-3H-imidazo[4,5-b]pyridin-6-yl)-1H-pyrazol-1-yl)-N-(2-(2-((2-(2,6-dioxopiperidin-3-yl)-1,3-dioxoisoindolin-4-yl)amino)ethoxy)ethyl)acetamide] | 682 nM | 
10 | COc1ccc(COc2ccc(Cn3c(N)nc4cc(-c5cnn(CC(=O)NCCOCCOCCOCCOCCNc6cccc7c6C(=O)N(C6CCC(=O)NC6=O)C7=O)c5)cnc43)cc2OC)cc1 (stereo not shown) [CPD-505, 2-(4-(2-amino-3-(3-methoxy-4-((4-methoxybenzyl)oxy)benzyl)-3H-imidazo[4,5-b]pyridin-6-yl)-1H-pyrazol-1-yl)-N-(14-((2-(2,6-dioxopiperidin-3-yl)-1,3-dioxoisoindolin-4-yl)amino)-3,6,9,12-tetraoxatetradecyl)acetamide] | 195 nM | 
11 | Cc1ncsc1-c1ccc(CNC(=O)[C@@H]2C[C@@H](O)CN2C(=O)[C@@H](NC(=O)CCOCCOCCC(=O)N2CCC(Nc3cccc(C(=O)Nc4cnn5ccc(N6CCC[C@@H]6c6cc(F)ccc6F)nc45)n3)CC2)C(C)(C)C)cc1 [CPD-466] | 253 nM | 
12 | Cn1c(=O)n(C2CCC(=O)NC2=O)c2ccc(OCCCN3CCN(c4ccc(C(=O)Nc5n[nH]c6ccc(Cc7cc(F)cc(F)c7)cc56)c(NC5CCOCC5)c4)CC3)cc21 (stereo not shown) [TR-313, N-(5-(3,5-Difluorobenzyl)-1H-indazol-3-yl)-4-(4-(3-((1-(2,6-dioxopiperidin-3-yl)-3-methyl-2-oxo-2,3-dihydro-1H-benzo[d]imidazol-5-yl)oxy)propyl)piperazin-1-yl)-2-((tetrahydro-2/1-pyran-4-yl)amino)benzamide] |  | 13.8 nM
13 | Cc1ncsc1-c1ccc(CNC(=O)[C@@H]2C[C@@H](O)CN2C(=O)[C@@H](NC(=O)CCOCCOCCOCCC(=O)N2CCC(Nc3cccc(C(=O)Nc4cnn5ccc(N6CCC[C@@H]6c6cc(F)ccc6F)nc45)n3)CC2)C(C)(C)C)cc1 [CPD-467, N-(5-((R)-2-(2,5-difluorophenyl)pyrrolidin-1-yl)pyrazolo[1,5-a]pyrimidin-3-yl)-6-((1-((S)-15-((2S,4R)-4-hydroxy-2-((4-(4-methylthiazol-5-yl)benzyl)carbamoyl)pyrrolidine-1-carbonyl)-16,16-dimethyl-13-oxo-4,7,10-trioxa-14-azaheptadecanoyl)piperidin-4-yl)amino)picolinamide] | 343 nM | 
14 | Cc1ncsc1-c1ccc(CNC(=O)[C@@H]2C[C@@H](O)CN2C(=O)[C@@H](NC(=O)CCCCC(=O)N2CCN(Cc3ccc(NC(=O)c4coc(N5CCOCC5)n4)c(N4CCC(C(N)=O)CC4)c3)CC2)C(C)(C)C)cc1 [CPD-491, N-(2-(4-carbamoylpiperidin-1-yl)-4-((4-(6-(((S)-1-((2S,4R)-4-hydroxy-2-((4-(4-methylthiazol-5-yl)benzyl)carbamoyl)pyrrolidin-1-yl)-3,3-dimethyl-1-oxobutan-2-yl)amino)-6-oxohexanoyl)piperazin-1-yl)methyl)phenyl)-2-morpholinooxazole-4-carboxamide] | 3700 nM | 
15 | COc1ccc(COc2ccc(Cn3c(N)nc4cc(-c5cnn(CC(=O)NCCCC(=O)N[C@H](C(=O)N6C[C@H](O)C[C@H]6C(=O)NCc6ccc(-c7scnc7C)cc6)C(C)(C)C)c5)cnc43)cc2OC)cc1 [CPD-508, (2S,4R)-1-((S)-2-(4-(2-(4-(2-amino-3-(3-methoxy-4-((4-methoxybenzyl)oxy)benzyl)-3H-imidazo[4,5-b]pyridin-6-yl)-1H-pyrazol-1-yl)acetamido)butanamido)-3,3-dimethylbutanoyl)-4-hydroxy-N-(4-(4-methylthiazol-5-yl)benzyl)pyrrolidine-2-carboxamide] | 2100 nM | 
16 | COc1ccc(COc2ccc(Cn3c(N)nc4cc(-c5cnn(CC(=O)NCCCCCC(=O)N[C@H](C(=O)N6C[C@H](O)C[C@H]6C(=O)NCc6ccc(-c7scnc7C)cc6)C(C)(C)C)c5)cnc43)cc2OC)cc1 [CPD-509, (2S,4R)-1-((S)-2-(6-(2-(4-(2-amino-3-(3-methoxy-4-((4-methoxybenzyl)oxy)benzyl)-3H-imidazo[4,5-b]pyridin-6-yl)-1H-pyrazol-1-yl)acetamido)hexanamido)-3,3-dimethylbutanoyl)-4-hydroxy-N-(4-(4-methylthiazol-5-yl)benzyl)pyrrolidine-2-carboxamide] | 53.1 nM | 
